Test results from PMC11274943, “Discovery of Benzisothiazolone Derivatives as Bifunctional Inhibitors of HIV-1 Reverse Transcriptase DNA Polymerase and Ribonuclease H Activities” (Biomolecules, 2024).

Assays:
[1] = molecular target: T1, WT HIV-1 RT RNase H activity (Human immunodeficiency virus type 1 group M subtype B, UniProt P04585); experiment: biochemical; format: biochemical; settings: for RNase H Activity IC50: WT RT, mean ± SD, at least three independent experiments
T1 construct: made in house
Protocol: (§1) WT (wild-type) RT, and RTs harboring the NNRTI-resistant mutations K101E, K103N, Y181C, Y188C, G190A and P236L, were overexpressed and purified to homogeneity as described previously. The RT concentration was determined spectrophotometrically at 280 nm using an absorbance coefficient of 260,450 M^−1·cm^−1. The 7-hydroxy tropolone derivative 19,616 (2,7-dihydroxy 2,4,6-cyclo-heptatrien-1-one) was purchased from Molecular Diversity Preservation International (Basel, Switzerland). […] The benzisothiazolone derivatives were procured from MolPort (New York, NY, USA) or Enamine (Kyiv, Ukraine). The DNA and RNA oligonucleotides were synthesized and purified by Integrated DNA Technologies (Coralville, IA, USA). All other reagents were of the highest quality available and were used without further purification.
Compounds were screened at a final concentration of 10 µM in 1× assay buffer (50 mM Tris pH 8.0, 60 mM KCl, 5 mM MgCl2) containing 1% DMSO in 384-well Greiner black polystyrene plates (VWR catalog # 82051-272). A total of 10 µL of intermediate diluted compounds (100 µM in 10% DMSO) was transferred into assay plates using the Evolution-3 (EP3) (Perkin Elmer, Waltham, MA, USA) automated liquid handling platform outfitted with a 384-well transfer head. A total of 40 µL of RT-RNase H enzyme (60 ng per well) were then dispensed into each well using the Titertek MAP-C2 reagent dispenser platform (Huntsville, AL, USA). A total of 50 µL of the RNA/DNA duplex (140 nM) substrate was then dispensed into each well using the MAP-C2 dispenser, and the assay plates were then incubated at room temperature for 20 min. After 20 min, the assay was terminated by the addition of 10 µL of 1 M EDTA pH 9.0 stop buffer. Relative fluorescent unit (RFU) signals, Excitation 490 nm and Emission 528 nm (Cutoff 515 nm), were captured on the Spectromax M5e plate reader (Molecular Devices, Menlo, CA, USA). […] The template also calculated the plate signal-to-background (S:B) ratios (mean maximum signal/mean minimum signal) and Z’-factor coefficient HTS performance statistics.
(§2) The following RNA/DNA T/P substrate was used in the present study: an 18-nucleotide RNA template (RNA-18T: 5′-[…]-3′) was annealed to an 18-nucleotide primer (DNA-18T: 5′-[…]-3′), as described previously. Fluorescein and IowaBlack FQTM were covalently attached to the 3′- and 5′-ter-mini of the RNA and DNA oligonucleotides, respectively.
(§3) The FRET-based RNase H cleavage assays were carried out as described previously. Fluorescence was measured with a SpectraMax M2 microplate spectrofluorometer (Molecular Devices, San Jose, CA, USA) using an excitation wavelength of 490 nm and an emission wavelength of 528 nm. Data were analyzed using SoftMax Pro software, version 4.7.1 (Molecular Devices, San Jose, CA, USA).
We implemented a rapid, robust and inexpensive fluorescence-based 384-well assay for the measurement of RT RNase H activity, previously described by Parniak et al.. The substrate comprises an 18-nucleotide 3′-fluorescein-labeled heteropolymeric RNA annealed to a complementary 5′-dabcyl-modified DNA. RT cleaves the RNA strand of this substrate close to the 3′ end, promoting the dissociation of the fluorescein-labeled RNA fragment and generating a detectable fluorescent signal. We used this HTS assay to screen 65,239 compounds at a final concentration of 10 µM.

[2] = molecular target: T2, Y181C HIV-1 RT RNase H activity (Human immunodeficiency virus type 1 group M subtype B, UniProt P04585, Y768C); experiment: FRET-based RT RNase H cleavage assay, Y181C RT; format: biochemical
T2 construct: made in house
Protocol: (§4) WT (wild-type) RT, and RTs harboring the NNRTI-resistant mutations K101E, K103N, Y181C, Y188C, G190A and P236L, were overexpressed and purified to homogeneity as described previously. The RT concentration was determined spectrophotometrically at 280 nm using an absorbance coefficient of 260,450 M^−1·cm^−1. The 7-hydroxy tropolone derivative 19,616 (2,7-dihydroxy 2,4,6-cyclo-heptatrien-1-one) was purchased from Molecular Diversity Preservation International (Basel, Switzerland). Nevirapine was purchased from Selleckchem (Houston, TX, USA). The benzisothiazolone derivatives were procured from MolPort (New York, NY, USA) or Enamine (Kyiv, Ukraine). The DNA and RNA oligonucleotides were synthesized and purified by Integrated DNA Technologies (Coralville, IA, USA). All other reagents were of the highest quality available and were used without further purification.
as §2, §3

[3] = test system: Y181C HIV-1 RT RNase H activity; experiment: FRET-based RT RNase H cleavage assay, Y181C RT; format: biochemical; settings: Y181C RT; fold resistance IC50 mutant/IC50 WT
Protocol: as §4, §2, §3

[4] = molecular target: T3, K103N HIV-1 RT RNase H activity (Human immunodeficiency virus type 1 group M subtype B, UniProt P04585, K690N); experiment: FRET-based RT RNase H cleavage assay, K103N RT; format: biochemical
T3 construct: made in house
Protocol: as §4, §2, §3

[5] = test system: K103N HIV-1 RT RNase H activity; experiment: FRET-based RT RNase H cleavage assay, K103N RT; format: biochemical; settings: K103N RT; fold resistance IC50 mutant/IC50 WT
Protocol: as §4, §2, §3

[6] = molecular target: T4, G190A HIV-1 RT RNase H activity (Human immunodeficiency virus type 1 group M subtype B, UniProt P04585, G777A); experiment: FRET-based RT RNase H cleavage assay, G190A RT; format: biochemical
T4 construct: made in house
Protocol: as §4, §2, §3

[7] = test system: G190A HIV-1 RT RNase H activity; experiment: FRET-based RT RNase H cleavage assay, G190A RT; format: biochemical; settings: G190A RT; fold resistance IC50 mutant/IC50 WT
Protocol: as §4, §2, §3

[8] = molecular target: T5, K101E HIV-1 RT RNase H activity (Human immunodeficiency virus type 1 group M subtype B, UniProt P04585, K688E); experiment: FRET-based RT RNase H cleavage assay, K101E RT; format: biochemical
T5 construct: made in house
Protocol: as §4, §2, §3

[9] = test system: K101E HIV-1 RT RNase H activity; experiment: FRET-based RT RNase H cleavage assay, K101E RT; format: biochemical; settings: K101E RT; fold resistance IC50 mutant/IC50 WT
Protocol: as §4, §2, §3

[10] = molecular target: T6, Y188C HIV-1 RT RNase H activity (Human immunodeficiency virus type 1 group M subtype B, UniProt P04585, Y775C); experiment: FRET-based RT RNase H cleavage assay, Y188C RT; format: biochemical
T6 construct: made in house
Protocol: as §4, §2, §3

[11] = test system: Y188C HIV-1 RT RNase H activity; experiment: FRET-based RT RNase H cleavage assay, Y188C RT; format: biochemical; settings: Y188C RT; fold resistance IC50 mutant/IC50 WT
Protocol: as §4, §2, §3

[12] = molecular target: T7, P236L HIV-1 RT RNase H activity (Human immunodeficiency virus type 1 group M subtype B, UniProt P04585, P823L); experiment: FRET-based RT RNase H cleavage assay, P236L RT; format: biochemical
T7 construct: made in house
Protocol: as §4, §2, §3

[13] = test system: P236L HIV-1 RT RNase H activity; experiment: FRET-based RT RNase H cleavage assay, P236L RT; format: biochemical; settings: P236L RT; fold resistance IC50 mutant/IC50 WT
Protocol: as §4, §2, §3

[14] = molecular target: T8, WT HIV-1 RT DNA-dependent DNA polymerase activity (Human immunodeficiency virus type 1 group M subtype B, UniProt P04585); experiment: biochemical; format: biochemical; settings: for Polymerase Activity IC50 (DNA Polymerase): WT RT, mean ± SD, at least three independent experiments
T8 construct: made in house
Protocol: as §1
DDDP assays were also performed using a QuantiFluor ONE based spectrophotometric assay to detect double-stranded DNA synthesized by recombinant HIV-1 RT [14]. The reaction contained 40 nM of a template/primer comprising a 200 nt DNA template (5′-[…] […]-[…]-[…] […] […]-3′) annealed to an 18-nucleotide DNA primer (5′-[…]-3′), and a mix of 50 mM Tris-HCl pH 7.8, 50 mM NaCl, 10 mM MgCl2 and 50 µM dNTP. The reactions were stopped after 45 min by adding the detection reagent containing 1 × Quant-Fluor One (Promega) and 12.5 mM ethylenediaminetet-raacetic acid; the samples were transferred to a 96-well black plate, and fluorescence was measured at excitation/emission (490/535 nm).

HIV-1 = experiment: Antiviral activity (HIV-1 replication) in TZM-bl cells; format: cell-based; settings: Human immunodeficiency virus 1, mean ± SD
Protocol: The genes for Y181C, Y181I, Y181V and Y181F were cloned into HIV-1LAI. NNRTI susceptibility was determined in TZM-bl cells, as described previously.
(§5) Next, we re-purchased 10 hit compounds with IC50 values < 1.0 µM for the inhibition of RT RNase H activity that were commercially available in sufficient quantities for further analysis. We assessed their antiviral activity and cytotoxicity in TZM-bl cells, as described previously.

[15] = Cytotoxicity in TZM-bl cells; format: cell-based; settings: human, TZM-bl cell death
Protocol: as §5

Cn1sc2ccccc2c1=O [Compound 3, 2-methylbenzo[d]isothiazol-3(2H)-one]
IC50 [1]: 2.5 ± 0.2 µM
IC50 [2]: 2.1 ± 0.3 µM
Inhibition of RT RNase H Activity Fold-R [3]: 0.8
IC50 [4]: 2.4 ± 0.2 µM
Inhibition of RT RNase H Activity Fold-R [5]: 1.0
IC50 [6]: 2.4 ± 0.4 µM
Inhibition of RT RNase H Activity Fold-R [7]: 1.0
IC50 [8]: 2.2 ± 0.3 µM
Inhibition of RT RNase H Activity Fold-R [9]: 0.9
IC50 [10]: 5.7 ± 1.2 µM
Inhibition of RT RNase H Activity Fold-R [11]: 2.3
IC50 [12]: 2.2 ± 0.2 µM
Inhibition of RT RNase H Activity Fold-R [13]: 0.9
IC50 [14]: > 81 µM
Polymerase Activity IC50 (DNA Polymerase) [14]: completely inactive
EC50 (HIV-1): 28.4 ± 12.3 µM
CC50 [15]: ≥ 100 µM

O=c1c2ccccc2sn1-c1ccc(S(=O)(=O)N2CCCC2)cc1 [Compound 5]
IC50 [1]: 15.4 ± 9.2 µM
RNase H Activity IC50 [1]: modest activity
IC50 [14]: 25 ± 25 µM
Polymerase Activity IC50 (DNA Polymerase) [14]: modest activity

O=c1c2ccccc2sn1-c1ccc(S(=O)(=O)N2CCCCC2)cc1 [Compound 6]
IC50 [1]: 39.2 ± 21 µM
RNase H Activity IC50 [1]: modest activity
IC50 [14]: 12.2 ± 3.7 µM
Polymerase Activity IC50 (DNA Polymerase) [14]: modest activity

O=S(=O)(c1cccc(-c2cn3cc(Cl)ccc3n2)c1)N1CCOCC1 [Compound 7]
IC50 [1]: > 81 µM
IC50 [14]: > 81 µM

CC1CN(S(=O)(=O)c2cccc(-c3cn4ccccc4n3)c2)CC(C)O1 (stereo not drawn) [Compound 8]
IC50 [1]: > 81 µM
IC50 [14]: > 81 µM

Cc1ccc(-c2nc3ccccc3s2)cc1S(=O)(=O)N1CCOCC1 [Compound 9]
IC50 [1]: > 81 µM
IC50 [14]: > 81 µM

O=S(=O)(c1cc(-c2nc3ccccc3s2)ccc1Cl)N1CCOCC1 [Compound 10]
IC50 [1]: > 81 µM
IC50 [14]: > 81 µM

O=S(=O)(c1cccc(-c2nc3ccccc3s2)c1)N1CCCC1 [Compound 11]
IC50 [1]: > 81 µM
IC50 [14]: 62 ± 38 µM

O=c1c(O)ccccc1O [Compound 19619, 2,7-dihydroxy 2,4,6-cyclo-heptatrien-1-one, reference compound]
IC50 [1]: 8.7 ± 3 µM
IC50 [2]: 12.1 ± 1.6 µM
Inhibition of RT RNase H Activity Fold-R [3]: 1.4
IC50 [4]: 9.4 ± 0.9 µM
Inhibition of RT RNase H Activity Fold-R [5]: 1.1
IC50 [6]: 7.1 ± 1.9 µM
Inhibition of RT RNase H Activity Fold-R [7]: 0.8
IC50 [8]: 8.1 ± 1.7 µM
Inhibition of RT RNase H Activity Fold-R [9]: 0.9
IC50 [10]: 5.5 ± 2.4 µM
Inhibition of RT RNase H Activity Fold-R [11]: 0.6
IC50 [12]: 8.9 ± 2.5 µM
Inhibition of RT RNase H Activity Fold-R [13]: 1.0
